Assay results: PMC6372667 (Experimental & Molecular Medicine, 2019)
Like-named read-outs stand apart in the source and are kept apart here.

Experiments:
[1] = system: NIH3T3 mouse embryo fibroblasts; assay: MTT cytotoxicity assay, NIH3T3; assay type: cell-based; details: 24 h
Procedure: (§1) Cytotoxicity was assessed using the MTT assay. Briefly, the cells were seeded into a 96-well plate at a density of 1×10^5 cells per well in 100 µL of corresponding media and incubated at 37 °C in an incubator under 5% CO2 tension for 24 h. The culture media were then replaced with 100 µL of fresh serum-free media in the presence of varied concentrations of pterosin derivatives, and cells were incubated for an additional 24 h. The control was treated with an equal amount of DMSO present in the assay for a 5 mM concentration. Then, 100 µL of MTT solution (0.5 mg/mL in Phosphate Buffered Saline (PBS)) was added to each culture. To measure the proportion of surviving cells, the media were replaced with 100 µL of DMSO 2 h after the administration of MTT solution. The absorbance was measured at 570 nm using a spectrophotometric plate reader (Molecular Devices, Sunnyvale, CA, USA).

horse serum BChE [2] = target: T1, horse serum BChE (Equus caballus, UniProt P81908); assay: In vitro cholinesterase enzyme assay (Ellman), BChE; assay type: biochemical
T1 construct: horse serum BChE (EC 3.1.1.8); purchased Sigma-Aldrich Co; host or cells: horse serum
Text: (§2) BACE1 (human recombinant β-secretase) ([…]) and the BACE1 FRET (fluorescence resonance energy transfer) assay kit Red were purchased from ThermoFisher Scientific (P2985; Waltham, MA, USA). […] For the cell culture experiment, Dulbecco’s modified Eagle’s medium (DMEM), Opti-MEM, fetal bovine serum (FBS), and penicillin/streptomycin were obtained from Capricorn Scientific (Ebsdorfergrund, Germany). β-secretase inhibitor III (β-SI) was purchased from Calbiochem (Darmstadt, Germany). The protease inhibitor mixture (a mixture of AEBSF, pepstatin A, E-64, bestain, leupeptin, and aprotinin) was purchased from Sigma-Aldrich (St. Louis, MO, USA). Enzyme-linked immunosorbent assay (ELISA) kits for Aβ40 and Aβ42 were obtained from IBL (Kunma, Japan). All chemicals and solvents used were reagent grade, purchased from commercial sources, and used as received.
(§3) The inhibitory activities of pterosin derivatives against cholinesterases were measured using the method developed by Ellman et al.[32]. The reaction mixture contained 140 μL of sodium phosphate buffer (pH 8.0), 20 μL of test sample solution (final concentration of the compound 100 μM), and 20 μL of AChE or BChE solution, mixed and incubated for 15 min at room temperature. […] The reactions were initiated following the addition of 10 μL of DTNB and 10 μL of acetyl thiocholine iodide for the AChE assay or butyryl thiocholine chloride for the BChE assay in 96-well microplates, which were incubated for 15 min.

[3] = system: SH-SY5Y human neuroblastoma; assay: MTT cytotoxicity assay, SH-SY5Y; assay type: cell-based; details: 24 h
Procedure: as §1

Electric eel AChE [4] = target: T2, Electric eel AChE (Electrophorus electricus, UniProt O42275); assay: Kinetic analysis of AChE inhibition (Dixon and Lineweaver−Burk plots); assay type: biochemical; details: for Inhibition type AChE: Dixon and Lineweaver−Burk plots
T2 construct: purchased Sigma-Aldrich Co
Procedure: (§4) The Ki was determined by interpretation of the Dixon plot, with the value of the x-axis intercept taken as −Ki.
Dixon plots for AChE inhibition by pterosin derivatives. (2S,3R)-Pterosin C (A), (2R,3R)-pterosin C (B), and (2R)-pterosin B (C) were tested in the presence of substrate concentrations of 0.1 mM (●), 0.3 mM (○), and 0.6 mM (▼). Lineweaver-Burk plots for AChE inhibition were generated with inhibitor concentrations of 0 µM (Δ), 4 µM (▼), 20 µM (○), and 100 µM (●) for (2S,3R)-pterosin C (D) and (2R,3R)-pterosin C (E); and 0 µM (Δ), 2 µM (▼), 10 µM (○), and 50 µM (●) for (2R)-pterosin B (F).
Dixon plots for AChE inhibition by pteroside derivatives. (2R)-pteroside B (A), (2R,3R)-pteroside C (B), and (3S)-pteroside D (C) were tested in the presence of substrate concentrations of 0.1 mM (●), 0.3 mM (○), and 0.6 mM (▼). Lineweaver-Burk plots for AChE inhibition were generated with inhibitor concentrations of 0 µM (Δ), 0.8 µM (▼), 4 µM (○), and 20 µM (●) for (2R)-pteroside B (D), (2R,3R)-pteroside C (E), and (3S)-pteroside D (F).

Electric eel AChE [5] = target: T2, Electric eel AChE; assay: In vitro cholinesterase enzyme assay (Ellman), AChE; assay type: biochemical
Text: as §2, §3

in vitro = in vitro ADME; details: for Papp at 4 h, 25 µg/mL: pig, PAMPA, read-out: PAMPA-BBB permeability Pe
Procedure: PAMPA (parallel artificial membrane permeation assay) was used as a high-throughput assay to predict BBB permeation. Porcine polar brain lipid (PBL) was used as an artificial membrane to predict BBB permeation. Initially, the test compound was dissolved in DMSO at 5 mg/mL. This compound stock solution (10 µL) was diluted 200-fold in a universal buffer at pH 7.4 and mixed with a multi 8-channel pipette to obtain the secondary stock solution (final concentration 25 µg/mL). The secondary stock solution (200 µL) was placed in the donor wells. The filter membrane was coated with PBL in dodecane (4 mL volume of 20 mg/mL PBL in dodecane), and 5 µL of BBB-1 lipid solution was spread on PBL by pipette. The acceptor well was filled with […] of Acceptor Sink Buffer. The acceptor filter plate was cautiously positioned on the donor plate to assemble a “sandwich” (comprising an aqueous acceptor, artificial lipid membrane and aqueous donor with test compound on the top, middle and bottom, respectively). The test compound diffuses from the donor well to the acceptor well through the lipid membrane. After 4 h of incubation at pH 7.4 and 25 °C, the concentration of the compound in the acceptor, donor, reference and blank wells was estimated with a UV plate reader, Epoch Microplate Spectrophotometer (BioTek Instruments, Inc., Winooski, VT, USA). […] Samples were analyzed in quadruplets, and the average of the four runs was reported. To monitor the consistency of the analysis set, quality control standards were run with each sample set.
PAMPA-BBB, an in vitro artificial membrane permeability assay for the BBB, is one of the most reliable physicochemical screening tools in the early stage discovery of CNS-targeted drugs. The PAMPA-BBB system models the transcellular passive diffusion of chemicals across the BBB and measures strictly passive transport mechanisms via an artificial lipid membrane on effective permeability (Pe, cm/s).

C6 rat glial cells = assay: MTT cytotoxicity assay, C6; assay type: cell-based; details: 24 h
Procedure: as §1

B16F10 mouse melanoma = assay: MTT cytotoxicity assay, B16F10; assay type: cell-based; details: 24 h
Procedure: as §1

[6] = target: T3, BACE1 (human recombinant β-secretase) (Homo sapiens, UniProt P56817); assay: In vitro BACE1 FRET enzyme assay; assay type: biochemical
Text: as §2
The BACE1 FRET assay was carried out according to the manufacturer’s instructions with slight modifications as previously described. The assay was performed in a […] black plate using a multi-pipette.

horse serum BChE [7] = target: T1, horse serum BChE; assay: Kinetic analysis of BChE inhibition (Dixon and Lineweaver−Burk plots); assay type: biochemical; details: for Inhibition type BChE: Dixon and Lineweaver−Burk plots
Procedure: as §4
Dixon plots for BChE inhibition by pterosin derivatives. (2S,3R)-Pterosin C (A), (2R,3R)-pterosin C (B), and (2R)-pterosin B (C) were tested in the presence of substrate concentrations of 0.2 mM (●), 0.4 mM (○), and 0.8 mM (▼).
Dixon plots for BChE inhibition by pteroside derivatives. (2R)-pteroside B (A), (2R,3R)-pteroside C (B), and (3S)-pteroside D (C) were tested in the presence of substrate concentrations of 0.2 mM (●), 0.4 mM (○), and 0.8 mM (▼). Lineweaver-Burk plots for BChE inhibition were generated with inhibitor concentrations of 0 µM (Δ), 4 µM (▼), 20 µM (○), and 100 µM (●) for (2R)-pteroside B (D); 0 µM (Δ), 0.8 µM (▼), 4 µM (○), and 20 µM (●) for (2R,3R)-pteroside C (E) and (3S)-pteroside D (F).

[8] = target: T3, BACE1 (human recombinant β-secretase); assay: Kinetic analysis of BACE1 inhibition (Dixon and Lineweaver−Burk plots); assay type: biochemical; details: for Inhibition type BACE1: Dixon and Lineweaver−Burk plots
Procedure: as §4
Dixon plots for BACE1 inhibition by pterosin derivatives.
Dixon plots for BACE1 inhibition by pteroside derivatives.

[9] = mean ± S.D. of three experiments, read-out: IC50 BChE
[10] = mean ± S.D. of three experiments, read-out: IC50 AChE
[11] = 4 h, pH 7.4, 25 °C, mean ± SD of quadruple experiments
[12] = mean ± S.D. of three experiments

T1 sequence (P81908 whole entry): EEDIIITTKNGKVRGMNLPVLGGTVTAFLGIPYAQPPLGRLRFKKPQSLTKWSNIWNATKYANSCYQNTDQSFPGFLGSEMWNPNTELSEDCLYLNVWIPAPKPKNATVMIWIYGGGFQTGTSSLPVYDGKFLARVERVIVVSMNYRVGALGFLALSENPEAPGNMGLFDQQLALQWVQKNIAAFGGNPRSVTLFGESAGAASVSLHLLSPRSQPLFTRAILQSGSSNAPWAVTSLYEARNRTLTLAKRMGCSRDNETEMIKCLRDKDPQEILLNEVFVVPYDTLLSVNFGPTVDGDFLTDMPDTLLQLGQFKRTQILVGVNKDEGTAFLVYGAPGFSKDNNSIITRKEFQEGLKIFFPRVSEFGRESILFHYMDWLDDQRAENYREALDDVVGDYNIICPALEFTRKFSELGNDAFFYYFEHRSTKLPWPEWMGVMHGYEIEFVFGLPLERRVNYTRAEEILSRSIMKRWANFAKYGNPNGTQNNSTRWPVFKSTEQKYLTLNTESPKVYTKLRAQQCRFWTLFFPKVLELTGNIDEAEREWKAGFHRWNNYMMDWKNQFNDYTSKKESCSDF
T3 sequence (P56817 46-501): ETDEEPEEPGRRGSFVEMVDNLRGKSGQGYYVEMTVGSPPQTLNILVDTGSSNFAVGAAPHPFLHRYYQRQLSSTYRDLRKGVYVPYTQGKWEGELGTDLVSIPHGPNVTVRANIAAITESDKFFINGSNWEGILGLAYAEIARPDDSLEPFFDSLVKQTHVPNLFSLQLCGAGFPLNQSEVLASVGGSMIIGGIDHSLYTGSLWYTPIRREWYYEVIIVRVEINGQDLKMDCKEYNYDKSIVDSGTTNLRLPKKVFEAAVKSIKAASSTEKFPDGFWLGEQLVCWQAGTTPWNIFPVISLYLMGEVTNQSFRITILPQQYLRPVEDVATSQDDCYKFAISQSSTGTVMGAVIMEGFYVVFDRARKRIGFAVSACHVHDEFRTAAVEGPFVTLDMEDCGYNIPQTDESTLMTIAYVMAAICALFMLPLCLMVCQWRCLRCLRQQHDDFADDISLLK
T2 sequence (O42275 24-633): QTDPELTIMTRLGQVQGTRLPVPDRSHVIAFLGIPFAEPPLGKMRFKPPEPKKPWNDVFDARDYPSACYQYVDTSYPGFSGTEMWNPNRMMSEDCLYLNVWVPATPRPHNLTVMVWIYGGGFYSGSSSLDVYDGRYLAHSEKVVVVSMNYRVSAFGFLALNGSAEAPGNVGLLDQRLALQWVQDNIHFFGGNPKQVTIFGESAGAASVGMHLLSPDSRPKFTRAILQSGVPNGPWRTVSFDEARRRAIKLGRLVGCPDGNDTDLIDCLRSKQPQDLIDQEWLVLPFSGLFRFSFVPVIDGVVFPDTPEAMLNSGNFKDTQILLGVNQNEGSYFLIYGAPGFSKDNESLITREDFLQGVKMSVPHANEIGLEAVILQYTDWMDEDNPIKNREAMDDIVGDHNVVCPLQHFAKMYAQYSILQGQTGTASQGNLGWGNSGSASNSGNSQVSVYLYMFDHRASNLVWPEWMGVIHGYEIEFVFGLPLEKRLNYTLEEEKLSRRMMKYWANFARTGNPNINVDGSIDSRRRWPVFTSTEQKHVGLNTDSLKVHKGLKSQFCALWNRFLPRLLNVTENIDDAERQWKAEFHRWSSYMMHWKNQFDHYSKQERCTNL

SMILES	LD50 Based on MTT Assay, NIH3T3 [1]	IC50 (horse serum BChE [2]) [µM]	LD50 Based on MTT Assay, SY-SY5Y [3]	IC50 (Electric eel AChE [5]) [µM]	LD50 Based on MTT Assay, C6 (C6 rat glial cells)	LD50 Based on MTT Assay, B16F10 (B16F10 mouse melanoma)	IC50 (horse serum BChE [2]; [9]) [µM]	IC50 (Electric eel AChE [5]; [10]) [µM]	Papp at 4 h, 25 µg/mL (in vitro; [11]) [×10⁻⁶ cm/s]	IC50 [6, 12] [µM]	further results
Cc1cc2c(c(C)c1CCO)C(=O)[C@H](C)[C@H]2O [(2R,3R)-Pterosin C, (2R,3R)-pterosin C]	>5,000 µM	20.3 ± 0.88	719 ± 25 µM	23.2 ± 4.6	694 ± 9.7 µM	>5,000 µM					Ki (Electric eel AChE [4]): 29.6 µM; Inhibition type AChE (Electric eel AChE [4]): Noncompetitive; log Pe (in vitro): -5.70; Papp at 4 h, 25 µg/mL (in vitro; pH 7.4): 1.98 ± 0.17 ×10⁻⁶ cm/s; IC50 [6]: 26.2 ± 6.3 µM; Ki (horse serum BChE [7]): 4.77 µM; Inhibition type BChE (horse serum BChE [7]): Mixed-type; Ki [8]: 27.6 µM; Inhibition type BACE1 [8]: Mixed-type
Cc1cc2c(c(C)c1CCO)C(=O)C(C)(COC1OC(CO)C(O)C(O)C1O)C2 [(2S)-Pteroside A2, (2S)-pteroside A2]	>5,000 µM		1,010 ± 60 µM		>5,000 µM	>5,000 µM	119 ± 2.5	39.3 ± 1.9	0.54 ± 0.51	94.4 ± 4.5	
Cc1c(CCO[C@@H]2O[C@H](CO)[C@@H](O)[C@H](O)[C@H]2O)c(CO)cc2c1C(=O)[C@@H](C)C2 [(2S)-Pteroside P, (2S)-pteroside P]	>5,000 µM		1,090 ± 99 µM		>5,000 µM	>5,000 µM	33.2 ± 3	57.5 ± 3.2		> 125	IC50 BACE1 [6, 12]: inactive at the concentrations tested
Cc1cc2c(c(C)c1CCO)C(=O)[C@](C)(CO)C2 [(2S)-Pterosin A, (2S)-pterosin A]	>5,000 µM		1,210 ± 110 µM		>5,000 µM	522 ± 25 µM	67.3 ± 3.3	56.7 ± 2.6	6.26 ± 0.24	> 125	log Pe (in vitro; PAMPA-BBB): -5.20; BBB permeation class (in vitro; PAMPA-BBB, classified by Pe, given in words): high BBB permeation; IC50 BACE1 [6, 12]: inactive at the concentrations tested
Cc1cc2c(c(C)c1CCO[C@@H]1O[C@H](CO)[C@@H](O)[C@H](O)[C@H]1O)C(=O)[C@@H](C)[C@H]2O [(2S,3R)-Pteroside C, (2S,3R)-pteroside C]	>5,000 µM		711 ± 35 µM		>5,000 µM	>5,000 µM	13 ± 0.14	9.17 ± 0.82	0.29 ± 0.34	28.9 ± 2.2	
Cc1cc2c(c(C)c1CCO)C(=O)[C@@H](C)[C@H]2O [(2S,3R)-Pterosin C, (2S,3R)-pterosin C]	>5,000 µM	44.3 ± 1	2,940 ± 260 µM	12.8 ± 0.79	>5,000 µM	>5,000 µM					Ki (Electric eel AChE [4]): 16.3 µM; Inhibition type AChE (Electric eel AChE [4]): Mixed-type; log Pe (in vitro): -5.65; Papp at 4 h, 25 µg/mL (in vitro; pH 7.4): 2.34 ± 0.81 ×10⁻⁶ cm/s; IC50 [6]: 23.1 ± 2.9 µM; Ki (horse serum BChE [7]): 29.9 µM; Inhibition type BChE (horse serum BChE [7]): Noncompetitive; Ki [8]: 33.8 µM; Inhibition type BACE1 [8]: Noncompetitive
Cc1cc2c(c(C)c1CCO[C@@H]1O[C@H](CO)[C@@H](O)[C@H](O)[C@H]1O)C(=O)C(C)(C)C2 [Pteroside Z, pteroside Z]	>5,000 µM		1,430 ± 210 µM		2,130 ± 62 µM	>5,000 µM	5.31 ± 0.19	24.1 ± 1.1	0.61 ± 0.17	53.3 ± 1.2	
Cc1cc2c(c(C)c1CCO)C(=O)C(C)(C)C2 [Pterosin Z, pterosin Z]	553 ± 37 µM	80.1 ± 6.8	495 ± 24 µM	46.5 ± 3.4	1,850 ± 65 µM	618 ± 71 µM				80 ± 5.9	
